The test system of data set [1] is vancomycin-resistant Enterococcus (VRE). Kind of data set: Broth microdilution MIC, VRE. The format is cell-based. To be noted: for MIC: Enterococcus, VRE, 24 h, read-out: Minimum inhibitory concentration, VRE. On the technique in general: Broth dilution looks for growth in wells or tubes with falling amounts of substance.
For another data set, the system named is S. aureus 6538P. Briefly: Broth microdilution MIC, S. aureus 6538P. The format is cell-based. Particulars: Staphylococcus aureus, read-out: Minimum inhibitory concentration, S. aureus 6538P.
The subject of the next data set is E. coli MC1061. Briefly: Broth microdilution MIC, E. coli MC1061. To be noted: Escherichia coli. The format is cell-based.
For another data set, the system named is E. coli ΔTolC. Kind of data set: Broth microdilution MIC, E. coli ΔTolC. To be noted: Escherichia coli, read-out: Minimum inhibitory concentration, E. coli ΔTolC. The format is cell-based.
A short description of data set [2]: Microscale solubility by optical density (plate reader). To be noted: 37 °C, aqueous buffer, kinetic from dmso stock.
The test system of data set [3] is methicillin-resistant S. aureus (MRSA) ATCC 43300. Kind of data set: Broth microdilution MIC, MRSA 43300. Particulars: for MIC: Staphylococcus aureus, read-out: Minimum inhibitory concentration, MRSA 43300; for improvement in activity relative to pleuromutilin (1): Gram-positive bacteria (S. aureus strains), MIC ratio to 1. The format is cell-based, Staphylococcus aureus.

Details of data set [4]: method as in earlier work. Particulars: cited from earlier work.
Where [5] appears, read: broth microdilution, 37 °C, MIC = lowest concentration inhibiting >90% of growth.
Where [6] appears, read: MC1061, broth microdilution, 37 °C, 16–18 h, MIC = lowest concentration inhibiting >90% of growth, read-out: Minimum inhibitory concentration, E. coli MC1061.
Setting [7] is: broth microdilution, 37 °C, 16–18 h, MIC = lowest concentration inhibiting >90% of growth.

Converted amounts (≈) assume the structure as drawn. Read-outs that look alike come from different tables or passages of the source.

As to `C=C[C@]1(C)C[C@@H](OC(=O)CSCCOCCOCCOCCOCCOCCO)[C@]2(C)[C@H](C)CC[C@]3(CCC(=O)[C@H]32)[C@@H](C)[C@@H]1O` [compound 47], the MIC is 3.12 µM (≈ 2.06 µg/mL) in data set [1] (setting [5]); 0.781 µM (≈ 0.515 µg/mL) with S. aureus 6538P; 25 µM (≈ 16.5 µg/mL) in the data set on E. coli MC1061 (setting [6]); 0.781 µM (≈ 0.515 µg/mL) with E. coli ΔTolC; 1.56 µM (≈ 1.03 µg/mL) in data set [3] (setting [7]). Besides, the solubility (in general, how much of the substance goes into solution per volume) at 1 day in data set [2] was over 200 µM.

Regarding `C=C[C@]1(C)C[C@@H](OC(=O)CSCCOCCOCCO)[C@]2(C)[C@H](C)CC[C@]3(CCC(=O)[C@H]32)[C@@H](C)[C@@H]1O` [compound 44], the MIC in data set [1] (setting [5]) turned out to be 3.12 µM (≈ 1.64 µg/mL); with S. aureus 6538P (setting [7]), 0.781 µM (≈ 0.411 µg/mL); in the data set with E. coli MC1061 (setting [6]), 12.5 µM (≈ 6.58 µg/mL); in the data set on E. coli ΔTolC it was 0.391 µM (≈ 0.206 µg/mL); in data set [3] (setting [7]) it was 1.56 µM (≈ 0.822 µg/mL). In data set [2], the solubility at 1 day was over 200 µM.

As for `C=C[C@]1(C)C[C@@H](OC(=O)CSCCOCCOCCOCCOCCO)[C@]2(C)[C@H](C)CC[C@]3(CCC(=O)[C@H]32)[C@@H](C)[C@@H]1O` [compound 46], the MIC in data set [1] (setting [5]) amounted to 3.12 µM (≈ 1.92 µg/mL); in the data set with S. aureus 6538P, 0.781 µM (≈ 0.48 µg/mL); with E. coli MC1061 (setting [6]), 12.5 µM (≈ 7.69 µg/mL); in the data set on E. coli ΔTolC it was 0.781 µM (≈ 0.48 µg/mL); in data set [3] (setting [7]) it was 1.56 µM (≈ 0.959 µg/mL). In data set [2], this molecule showed a solubility at 1 day of over 200 µM.

Turning to `C=C[C@]1(C)C[C@@H](OC(=O)CSCCOCCOCCN=[N+]=[N-])[C@]2(C)[C@H](C)CC[C@]3(CCC(=O)[C@H]32)[C@@H](C)[C@@H]1O` [compound 30], the MIC was 3.12 µM (≈ 1.72 µg/mL) in data set [1] (setting [5]); 0.781 µM (≈ 0.431 µg/mL) in the data set with S. aureus 6538P (setting [7]); 25 µM (≈ 13.8 µg/mL) in the data set on E. coli MC1061 (setting [6]); 0.391 µM (≈ 0.216 µg/mL) with E. coli ΔTolC; 0.781 µM (≈ 0.431 µg/mL) in data set [3] (setting [7]). The molecule further showed a solubility at 1 day in data set [2] of 50 to 100 µM (≈ 27.6 to 55.2 µg/mL).

For the molecule `C=C[C@]1(C)C[C@@H](OC(=O)CO)[C@]2(C)[C@H](C)CC[C@]3(CCC(=O)[C@H]32)[C@@H](C)[C@@H]1O` [compound 1, Pleuromutilin], the MIC in data set [1] worked out at 12.5 µM (≈ 4.73 µg/mL); in the data set on S. aureus 6538P it was 3.12 µM (≈ 1.18 µg/mL); in the data set on E. coli MC1061 (MC1061, read-out: Minimum inhibitory concentration, E. coli MC1061) it was 3.12 µM (≈ 1.18 µg/mL); in the data set on E. coli ΔTolC it was 3.12 µM (≈ 1.18 µg/mL); in data set [3], 3.12 µM (≈ 1.18 µg/mL). Moreover, the water solubility in data set [4] is 20 µg/mL (≈ 52.8 µM). The molecule further displayed a solubility at 1 day in data set [2] of 50 to 100 µM (≈ 18.9 to 37.9 µg/mL).

With `C=C[C@]1(C)C[C@@H](OC(=O)CSCCN=[N+]=[N-])[C@]2(C)[C@H](C)CC[C@]3(CCC(=O)[C@H]32)[C@@H](C)[C@@H]1O` [compound 28], the MIC in data set [1] (setting [5]) worked out at 1.56 µM (≈ 0.723 µg/mL); in the data set with S. aureus 6538P (setting [7]) it was 0.391 µM (≈ 0.181 µg/mL); with E. coli MC1061 (setting [6]), 12.5 µM (≈ 5.8 µg/mL); in the data set on E. coli ΔTolC it was 0.195 µM (≈ 0.0904 µg/mL); in data set [3] (setting [7]), 0.391 µM (≈ 0.181 µg/mL). In addition, in data set [1] (MIC ratio to 1), the “potency compared to 1, VRE” value is recorded as 8 fold. In data set [2], this molecule returned a solubility at 1 day of 25 to 50 µM (≈ 11.6 to 23.2 µg/mL). Also, the “improvement in activity relative to pleuromutilin (1)” value in data set [3] is reported as 8 fold.

In the case of `C=C[C@]1(C)C[C@@H](OC(=O)CSCCOCCOCCOCCOCCN=[N+]=[N-])[C@]2(C)[C@H](C)CC[C@]3(CCC(=O)[C@H]32)[C@@H](C)[C@@H]1O` [compound 32], the MIC was found to be 3.12 µM (≈ 2 µg/mL) in data set [1] (setting [5]); 0.781 µM (≈ 0.5 µg/mL) with S. aureus 6538P (setting [7]); 25 µM (≈ 16 µg/mL) in the data set on E. coli MC1061 (setting [6]); 0.391 µM (≈ 0.25 µg/mL) in the data set on E. coli ΔTolC; 0.781 µM (≈ 0.5 µg/mL) in data set [3] (setting [7]). For the same molecule, the solubility at 1 day in data set [2] was in the range of 100 to 200 µM (≈ 64 to 128 µg/mL).

Turning to `C=C[C@]1(C)C[C@@H](OC(=O)CSCCOCCOCCOCCOCCOCCOCCOCCO)[C@]2(C)[C@H](C)CC[C@]3(CCC(=O)[C@H]32)[C@@H](C)[C@@H]1O` [compound 48], the MIC in data set [1] (setting [5]) amounted to 3.12 µM (≈ 2.33 µg/mL); in the data set with S. aureus 6538P it was 1.56 µM (≈ 1.17 µg/mL); in the data set on E. coli MC1061 (setting [6]) it was 25 µM (≈ 18.7 µg/mL); in the data set with E. coli ΔTolC, 1.56 µM (≈ 1.17 µg/mL); in data set [3] (setting [7]), 3.12 µM (≈ 2.33 µg/mL). For the same molecule, the solubility at 1 day in data set [2] was over 200 µM.

Take `C=C[C@]1(C)C[C@@H](OC(=O)CSCCOCCN=[N+]=[N-])[C@]2(C)[C@H](C)CC[C@]3(CCC(=O)[C@H]32)[C@@H](C)[C@@H]1O` [compound 29]: the MIC in data set [1] (setting [5]) was 3.12 µM (≈ 1.58 µg/mL); in the data set on S. aureus 6538P (setting [7]), 0.781 µM (≈ 0.397 µg/mL); in the data set on E. coli MC1061 (setting [6]), 25 µM (≈ 12.7 µg/mL); with E. coli ΔTolC it was 0.391 µM (≈ 0.199 µg/mL); in data set [3], 0.391 µM (≈ 0.199 µg/mL). Moreover, the solubility at 1 day in data set [2] fell in the range of 25 to 50 µM (≈ 12.7 to 25.4 µg/mL). Moreover, the “improvement in activity relative to pleuromutilin (1)” value in data set [3] was 8 fold.

For the molecule `C=C[C@]1(C)C[C@@H](OC(=O)CSCCOCCOCCOCCN=[N+]=[N-])[C@]2(C)[C@H](C)CC[C@]3(CCC(=O)[C@H]32)[C@@H](C)[C@@H]1O` [compound 31], the MIC in data set [1] (setting [5]) amounted to 3.12 µM (≈ 1.86 µg/mL); in the data set with S. aureus 6538P (setting [7]) it was 0.781 µM (≈ 0.465 µg/mL); with E. coli MC1061 (setting [6]) it was 50 µM (≈ 29.8 µg/mL); with E. coli ΔTolC it was 0.391 µM (≈ 0.233 µg/mL); in data set [3] (setting [7]) it was 0.781 µM (≈ 0.465 µg/mL). The same molecule showed a solubility at 1 day in data set [2] of 100 to 200 µM (≈ 59.6 to 119 µg/mL).

For `C=C[C@]1(C)C[C@@H](OC(=O)CSCCOCCOCCOCCO)[C@]2(C)[C@H](C)CC[C@]3(CCC(=O)[C@H]32)[C@@H](C)[C@@H]1O` [compound 45], the MIC in data set [1] (setting [5]) was 3.12 µM (≈ 1.78 µg/mL); in the data set with S. aureus 6538P it was 0.781 µM (≈ 0.446 µg/mL); with E. coli MC1061 (setting [6]) it was 12.5 µM (≈ 7.13 µg/mL); in the data set on E. coli ΔTolC it was 0.781 µM (≈ 0.446 µg/mL); in data set [3] (setting [7]) it was 1.56 µM (≈ 0.89 µg/mL). Also, in data set [2], the solubility at 1 day is over 200 µM.

Take `C=C[C@]1(C)C[C@@H](OC(=O)CSCCOCCO)[C@]2(C)[C@H](C)CC[C@]3(CCC(=O)[C@H]32)[C@@H](C)[C@@H]1O` [compound 43]: the MIC came to 3.12 µM (≈ 1.51 µg/mL) in data set [1] (setting [5]); 0.781 µM (≈ 0.377 µg/mL) with S. aureus 6538P (setting [7]); 6.25 µM (≈ 3.02 µg/mL) with E. coli MC1061 (setting [6]); 0.391 µM (≈ 0.189 µg/mL) in the data set on E. coli ΔTolC; 0.781 µM (≈ 0.377 µg/mL) in data set [3] (setting [7]). For the same molecule, the solubility at 1 day in data set [2] is over 200 µM.

Regarding `C=C[C@]1(C)C[C@@H](OC(=O)CSCCO)[C@]2(C)[C@H](C)CC[C@]3(CCC(=O)[C@H]32)[C@@H](C)[C@@H]1O` [compound 25], the MIC in data set [1] (setting [5]) worked out at 3.12 µM (≈ 1.37 µg/mL); in the data set on S. aureus 6538P (setting [7]) it was 0.781 µM (≈ 0.343 µg/mL); in the data set with E. coli MC1061 (setting [6]), 3.12 µM (≈ 1.37 µg/mL); in the data set on E. coli ΔTolC, 0.391 µM (≈ 0.172 µg/mL); in data set [3] (setting [7]), 0.781 µM (≈ 0.343 µg/mL). Further, the solubility at 1 day in data set [2] is over 200 µM.
